# Assay results: ChEMBL document CHEMBL1201862, “PubChem BioAssay data set” (2004)
#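 Step 1: Grow cells in 96-well plates. Step 2: Expose to compound for 48 hours at 5 concentrations. Step 3: Interpolate endpoints linearly; if unreached, use highest concentration. GI50 = concentration required for 50% inhibition of growth.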 The source made the active and inactive calls. Rule as the data show it: active = GI50 up to about 1.1 µM and inactive = higher.
# Legend:
# Experiment in all cases: NCI-60 cell line screen, 48 h
# HOP-92 = system: HOP-92
# SF-539 = system: SF-539
# RPMI-8226 = system: RPMI-8226
# COLO 205 = system: COLO 205
# SNB-19 = system: SNB-19
# NCI-H460 = system: NCI-H460
# OVCAR-8 = system: OVCAR-8
# IGROV-1 = system: IGROV-1
# SF-295 = system: SF-295
# MDA-MB-231 = system: MDA-MB-231
# A549 = system: A549
# UACC-257 = system: UACC-257
# HT-29 = system: HT-29
# SK-MEL-2 = system: SK-MEL-2
# SNB-75 = system: SNB-75
# DU-145 = system: DU-145
# KM12 = system: KM12
# HCC 2998 = system: HCC 2998
# SK-OV-3 = system: SK-OV-3
SMILES,GI50 (HOP-92),GI50 (SF-539),GI50 (RPMI-8226),GI50 (COLO 205),GI50 (SNB-19),GI50 (NCI-H460),GI50 (OVCAR-8),GI50 (IGROV-1),GI50 (SF-295),GI50 (MDA-MB-231),GI50 (A549),GI50 (UACC-257),GI50 (HT-29),GI50 (SK-MEL-2),GI50 (SNB-75),GI50 (DU-145),GI50 (KM12),GI50 (HCC 2998),GI50 (SK-OV-3)
Nc1ncnc2c1ncn2C1OC(CO)C(O)C(O)C1O (stereo not given),> 100 µM (inactive),> 100 µM (inactive),> 100 µM (inactive),> 100 µM (inactive),> 100 µM (inactive),> 100 µM (inactive),> 100 µM (inactive),> 100 µM (inactive),> 100 µM (inactive),> 100 µM (inactive),> 100 µM (inactive),> 100 µM (inactive),> 100 µM (inactive),> 100 µM (inactive),> 100 µM (inactive),> 100 µM (inactive),> 100 µM (inactive),> 100 µM (inactive),–
N#CC12C(=O)N3C(=NC(c4ccccc4)NC3c3ccccc3)C1(C#N)C(c1ccccc1)NC1=C2CCCC1 (stereo not given),> 100 µM (inactive),–,> 100 µM (inactive),> 100 µM (inactive),> 100 µM (inactive),> 100 µM (inactive),> 100 µM (inactive),> 100 µM (inactive),> 100 µM (inactive),> 100 µM (inactive),> 100 µM (inactive),> 100 µM (inactive),> 100 µM (inactive),> 100 µM (inactive),> 100 µM (inactive),> 100 µM (inactive),> 100 µM (inactive),> 100 µM (inactive),> 100 µM (inactive)
CN(CCNC(=O)c1nn(C)c2c1Cc1ccccc1-2)CCNC(=O)c1nn(C)c2c1Cc1ccccc1-2,12.9 µM (inactive),14.3 µM (inactive),–,11.9 µM (inactive),15.6 µM (inactive),16.4 µM (inactive),17.5 µM (inactive),8.55 µM (inactive),16 µM (inactive),19 µM (inactive),15.8 µM (inactive),14 µM (inactive),14 µM (inactive),14.7 µM (inactive),14.4 µM (inactive),17.9 µM (inactive),19.1 µM (inactive),12.5 µM (inactive),18.2 µM (inactive)
CC1=C(/C=C/Cl)CC(Cl)C(C)(Cl)C1 (stereo not given),53 µM (inactive),> 100 µM (inactive),–,> 100 µM (inactive),> 100 µM (inactive),> 100 µM (inactive),> 100 µM (inactive),> 100 µM (inactive),> 100 µM (inactive),> 100 µM (inactive),> 100 µM (inactive),> 100 µM (inactive),55.8 µM (inactive),> 100 µM (inactive),> 100 µM (inactive),> 100 µM (inactive),> 100 µM (inactive),> 100 µM (inactive),> 100 µM (inactive)
CN(C)S(=O)(=O)/N=C/c1cccc(/C=N/S(=O)(=O)N(C)C)c1,32.1 µM (inactive),23.9 µM (inactive),63.1 µM (inactive),65.9 µM (inactive),> 100 µM (inactive),> 100 µM (inactive),51.3 µM (inactive),–,0.728 µM (active),> 100 µM (inactive),> 100 µM (inactive),> 100 µM (inactive),–,–,22.9 µM (inactive),> 100 µM (inactive),> 100 µM (inactive),> 100 µM (inactive),> 100 µM (inactive)
COC(CC1(CCNc2ccccc2)C(=O)N(COCC[Si](C)(C)C)c2ccccc21)OC (stereo not given),13.8 µM (inactive),–,7.23 µM (inactive),2.69 µM (inactive),15.5 µM (inactive),15 µM (inactive),18.4 µM (inactive),9.66 µM (inactive),16.6 µM (inactive),19.3 µM (inactive),15.5 µM (inactive),11.7 µM (inactive),16.4 µM (inactive),15.3 µM (inactive),4.46 µM (inactive),23.6 µM (inactive),8.85 µM (inactive),2.11 µM (inactive),15.2 µM (inactive)
O=C1C=C(c2c(-c3ccccc3)[nH]c3ccccc23)C(=O)N1c1ccccc1,9.14 µM (inactive),8.24 µM (inactive),5.6 µM (inactive),8.3 µM (inactive),21.9 µM (inactive),14.6 µM (inactive),4.46 µM (inactive),14.5 µM (inactive),10.6 µM (inactive),11.3 µM (inactive),14.6 µM (inactive),9.25 µM (inactive),7.18 µM (inactive),12.5 µM (inactive),–,3.52 µM (inactive),–,7.94 µM (inactive),24.8 µM (inactive)
Oc1ccc([I+]c2ccccc2)cc1O,0.0583 µM (active),29.2 µM (inactive),12 µM (inactive),34.4 µM (inactive),26.2 µM (inactive),23.3 µM (inactive),53.3 µM (inactive),29.7 µM (inactive),73.8 µM (inactive),46.7 µM (inactive),24.9 µM (inactive),> 100 µM (inactive),37.4 µM (inactive),–,95.1 µM (inactive),57.8 µM (inactive),24.8 µM (inactive),23.9 µM (inactive),–
C(=N\Nc1nnc(-c2nnc(N/N=C/c3ccccc3)o2)o1)/c1ccccc1,> 10 µM (inactive),> 10 µM (inactive),> 10 µM (inactive),> 10 µM (inactive),> 10 µM (inactive),> 10 µM (inactive),> 10 µM (inactive),> 10 µM (inactive),> 10 µM (inactive),> 10 µM (inactive),> 10 µM (inactive),> 10 µM (inactive),> 10 µM (inactive),–,–,> 10 µM (inactive),> 10 µM (inactive),> 10 µM (inactive),–
Cc1nnc2n1N=C(c1cc(F)c(Cl)cc1Cl)/C(=C/c1ccc3c(c1)OCO3)S2,65.8 µM (inactive),> 100 µM (inactive),43.6 µM (inactive),> 100 µM (inactive),> 100 µM (inactive),> 100 µM (inactive),65.3 µM (inactive),50.7 µM (inactive),53.3 µM (inactive),> 100 µM (inactive),> 100 µM (inactive),71.1 µM (inactive),36.1 µM (inactive),44 µM (inactive),–,72.8 µM (inactive),> 100 µM (inactive),48.4 µM (inactive),> 100 µM (inactive)
CC(=O)c1cccc(Nc2c3ccccc3nc3occc23)c1,11.5 µM (inactive),2.16 µM (inactive),3.34 µM (inactive),11.7 µM (inactive),10.9 µM (inactive),22.8 µM (inactive),15.3 µM (inactive),2.54 µM (inactive),3.83 µM (inactive),9.93 µM (inactive),16.5 µM (inactive),11.3 µM (inactive),1.51 µM (inactive),2.74 µM (inactive),–,11 µM (inactive),4.73 µM (inactive),5.21 µM (inactive),10.6 µM (inactive)
Cc1nnc2n1N=C(c1ccccc1)/C(=C/c1ccc(-c3ccc(Cl)cc3)o1)S2,17.5 µM (inactive),–,5.11 µM (inactive),25.2 µM (inactive),16.6 µM (inactive),15.1 µM (inactive),–,18.9 µM (inactive),15.9 µM (inactive),15.1 µM (inactive),18 µM (inactive),16.6 µM (inactive),16.5 µM (inactive),13.2 µM (inactive),–,14.3 µM (inactive),13.4 µM (inactive),7.19 µM (inactive),32.1 µM (inactive)
O=C(C=P(c1ccccc1)(c1ccccc1)c1ccccc1)c1ccc(-c2ccc(F)cc2F)cc1,2.19 µM (inactive),2.88 µM (inactive),1.87 µM (inactive),1.64 µM (inactive),4.73 µM (inactive),1.86 µM (inactive),–,–,3.15 µM (inactive),2.1 µM (inactive),2.73 µM (inactive),2.72 µM (inactive),2.18 µM (inactive),–,–,3.1 µM (inactive),3.42 µM (inactive),2.08 µM (inactive),2.83 µM (inactive)
COC1(O)C(=O)c2ccccc2OC1(OC)c1ccccc1 (stereo not given),> 100 µM (inactive),> 100 µM (inactive),> 100 µM (inactive),> 100 µM (inactive),> 100 µM (inactive),40.4 µM (inactive),> 100 µM (inactive),> 100 µM (inactive),> 100 µM (inactive),> 100 µM (inactive),> 100 µM (inactive),> 100 µM (inactive),> 100 µM (inactive),> 100 µM (inactive),> 100 µM (inactive),> 100 µM (inactive),–,> 100 µM (inactive),–
O=C1CCC2SC1CCC2=O,> 100 µM (inactive),> 100 µM (inactive),–,> 100 µM (inactive),> 100 µM (inactive),> 100 µM (inactive),> 100 µM (inactive),> 100 µM (inactive),> 100 µM (inactive),> 100 µM (inactive),> 100 µM (inactive),> 100 µM (inactive),> 100 µM (inactive),> 100 µM (inactive),> 100 µM (inactive),> 100 µM (inactive),> 100 µM (inactive),> 100 µM (inactive),> 100 µM (inactive)
CCCCCCCCCCCCCCCCOP(=O)([O-])OCC[N+](C)(C)C1CC(C)(C)N(O)C(C)(C)C1,> 100 µM (inactive),> 100 µM (inactive),–,> 100 µM (inactive),> 100 µM (inactive),> 100 µM (inactive),> 100 µM (inactive),–,> 100 µM (inactive),> 100 µM (inactive),> 100 µM (inactive),> 100 µM (inactive),> 100 µM (inactive),> 100 µM (inactive),> 100 µM (inactive),> 100 µM (inactive),> 100 µM (inactive),> 100 µM (inactive),> 100 µM (inactive)
